# Assay results as given in patent publication US20230312550A1, “N-(2-(4-CYANOTHIAZOLIDIN-3-YL)-2-OXOETHYL)-QUINOLINE-4-CARBOXAMIDES” (AstraZeneca AB, priority 2020, published 2023).
# pIC50, pKd: −log10 of the molar value.
# Key:
# hFAP (M39-A757) = hFAP (M39-A757) (Homo sapiens (Human), UniProt Q12884); assay: hFAP binding assay (surface plasmon resonance); conditions: SPR, 20° C.; for hFAP Binding assay k(off) / hFAP Binding assay k(on): single cycle kinetics; for pKd: n = 1 or geometric mean n = 2-4
# hFAP (M39-A757), sequence (Q12884 39-757): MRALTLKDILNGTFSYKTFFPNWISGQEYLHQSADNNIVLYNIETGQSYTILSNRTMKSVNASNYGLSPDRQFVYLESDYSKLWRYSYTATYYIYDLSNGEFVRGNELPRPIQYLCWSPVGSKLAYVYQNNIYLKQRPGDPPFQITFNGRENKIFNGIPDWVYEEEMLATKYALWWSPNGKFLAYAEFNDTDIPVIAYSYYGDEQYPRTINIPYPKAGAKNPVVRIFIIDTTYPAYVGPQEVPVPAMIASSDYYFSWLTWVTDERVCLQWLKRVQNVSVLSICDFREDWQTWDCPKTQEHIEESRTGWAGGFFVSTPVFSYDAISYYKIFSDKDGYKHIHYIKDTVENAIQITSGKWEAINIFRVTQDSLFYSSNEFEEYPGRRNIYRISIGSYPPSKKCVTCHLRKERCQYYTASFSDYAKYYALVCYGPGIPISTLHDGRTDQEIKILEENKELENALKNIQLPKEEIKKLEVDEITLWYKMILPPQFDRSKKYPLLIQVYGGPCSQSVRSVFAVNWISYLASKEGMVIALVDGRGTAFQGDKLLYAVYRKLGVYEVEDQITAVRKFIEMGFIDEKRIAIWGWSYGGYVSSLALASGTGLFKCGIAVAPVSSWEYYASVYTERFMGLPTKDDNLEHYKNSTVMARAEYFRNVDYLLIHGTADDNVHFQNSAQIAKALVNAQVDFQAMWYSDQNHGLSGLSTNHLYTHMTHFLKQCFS
# FAP [1] = target: FAP (Mus musculus (Mouse), UniProt P97321); assay: FAP plasma inhibition assay, mouse plasma; type: biochemical; conditions: mouse plasma diluted 1:67, Ala-Pro-AMC 75 μM
# FAP (Mus musculus (Mouse), UniProt P97321), sequence (P97321 24-761): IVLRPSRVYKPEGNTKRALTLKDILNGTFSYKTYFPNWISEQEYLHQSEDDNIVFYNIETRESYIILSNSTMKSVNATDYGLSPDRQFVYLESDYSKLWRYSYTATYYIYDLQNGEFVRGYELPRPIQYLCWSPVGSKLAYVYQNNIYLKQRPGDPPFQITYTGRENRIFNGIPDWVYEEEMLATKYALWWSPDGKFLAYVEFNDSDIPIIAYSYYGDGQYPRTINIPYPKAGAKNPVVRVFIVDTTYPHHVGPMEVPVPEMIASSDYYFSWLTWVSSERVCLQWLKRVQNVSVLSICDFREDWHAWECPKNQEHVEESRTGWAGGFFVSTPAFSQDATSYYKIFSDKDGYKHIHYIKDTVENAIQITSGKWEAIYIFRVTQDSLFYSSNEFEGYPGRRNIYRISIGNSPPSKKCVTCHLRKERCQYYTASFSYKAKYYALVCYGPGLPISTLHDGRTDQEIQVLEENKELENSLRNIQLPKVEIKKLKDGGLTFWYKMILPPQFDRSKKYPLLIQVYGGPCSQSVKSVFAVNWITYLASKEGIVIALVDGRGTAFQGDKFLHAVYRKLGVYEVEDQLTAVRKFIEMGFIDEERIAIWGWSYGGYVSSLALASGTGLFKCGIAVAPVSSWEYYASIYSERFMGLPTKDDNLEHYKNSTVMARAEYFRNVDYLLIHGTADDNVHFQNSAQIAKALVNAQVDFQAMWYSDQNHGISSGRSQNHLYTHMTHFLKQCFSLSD
# Procedure, shortened: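 K2EDTA plasma served as enzyme source, human diluted 1:40 and mouse 1:67, in PBS with 0.1% BSA. Compounds ran as a 10-point 3-fold series from 500 nM final, in duplicate, 40 min at rt in the dark, with fluorescence read against a pre-substrate blank. IC50 came from % inhibition versus log concentration.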
# [2] = target: Prolyl endopeptidase, Prolyl Oligopeptidase (hPREP) (Homo sapiens (Human), UniProt P48147); assay: hPrep inhibition assay; type: biochemical; conditions: hPREP 0.6 nM, Z-Gly-Pro-amino-methylcoumarin 50 μM; read-out: PREP IC50
# Prolyl endopeptidase, Prolyl Oligopeptidase (hPREP), sequence (P48147 whole entry): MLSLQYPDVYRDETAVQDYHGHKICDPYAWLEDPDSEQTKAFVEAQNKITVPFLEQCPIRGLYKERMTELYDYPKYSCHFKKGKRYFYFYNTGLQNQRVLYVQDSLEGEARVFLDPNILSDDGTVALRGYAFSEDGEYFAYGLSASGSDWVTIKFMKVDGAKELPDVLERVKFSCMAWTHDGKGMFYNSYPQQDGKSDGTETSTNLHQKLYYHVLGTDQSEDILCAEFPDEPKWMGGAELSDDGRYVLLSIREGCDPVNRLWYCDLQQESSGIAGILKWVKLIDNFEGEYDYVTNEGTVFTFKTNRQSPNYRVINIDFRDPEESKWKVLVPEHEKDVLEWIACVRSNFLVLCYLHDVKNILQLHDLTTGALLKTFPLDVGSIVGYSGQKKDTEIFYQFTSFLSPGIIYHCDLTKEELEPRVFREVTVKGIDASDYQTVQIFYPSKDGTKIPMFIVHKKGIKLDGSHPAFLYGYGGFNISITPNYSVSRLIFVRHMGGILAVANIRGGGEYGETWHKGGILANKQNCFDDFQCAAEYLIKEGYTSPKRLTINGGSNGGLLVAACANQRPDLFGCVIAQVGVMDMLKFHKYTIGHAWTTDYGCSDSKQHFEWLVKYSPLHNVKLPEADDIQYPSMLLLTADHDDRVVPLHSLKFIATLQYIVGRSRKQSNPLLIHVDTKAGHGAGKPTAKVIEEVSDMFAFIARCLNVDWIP
# Procedure, shortened: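 Fluorogenic read-out (340 nm excitation, 460 nm emission) after 20 min at rt, using 50 μM final Z-Gly-Pro-aminomethylcoumarin and 0.6 nM final enzyme, following 15 min compound preincubation. Buffer pH 7.5 with glutathione and Triton X-100. IC50 via one-site model on % inhibition vs log concentration.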
# [3] = target: human dipeptidylpeptidase 7 (hDPP7) (Homo sapiens (Human), UniProt Q9UHL4); assay: hDPP7 inhibition assay; type: biochemical; conditions: hDPP7 15 nM, Ala-Pro-amino-methylcoumarin 5 μM, n = 1
# Procedure: Compounds were tested in a biochemical inhibition assay using human dipeptidylpeptidase 7 (hDPP7) enzyme at 15 nM FAC (BPS Bioscience, #80070) and the substrate Ala-Pro-amino-methylcoumarin (BPS Bioscience, #80305) at 5 μM FAC. The enzymatic reactions were conducted in duplicate at rt for 30 min in 50 μL DPP assay buffer (BPS Bioscience, #80300). Compound solutions (in DMSO) at 10 CR, 3 fold dilution series were prepared in assay buffer ten-fold higher than the final concentration, and 5 μL of the dilution was added to a 50 μL reaction so that the highest compound concentration was 100 μM FAC and the concentration of DMSO was 1% in all wells. The plates were read on a Tecan Infinite M1000 microplate reader with excitation 340 nm and emission 460 nm. Data were analyzed in Graph Pad Prism. IC50 values were determined by plotting % inhibition versus log compound concentration and using a one site dose response model. Raw data signals were normalized using 1% DMSO as 0% control and no enzyme as 100% inhibitor control.
# [4] = target: human dipeptidylpeptidase 8 (hDPP8) (Homo sapiens (Human), UniProt Q6V1X1); assay: hDPP8 inhibition assay; type: biochemical; conditions: Ala-Pro-amino-methylcoumarin 5 μM, n = 1
# human dipeptidylpeptidase 8 (hDPP8), sequence (Q6V1X1 whole entry): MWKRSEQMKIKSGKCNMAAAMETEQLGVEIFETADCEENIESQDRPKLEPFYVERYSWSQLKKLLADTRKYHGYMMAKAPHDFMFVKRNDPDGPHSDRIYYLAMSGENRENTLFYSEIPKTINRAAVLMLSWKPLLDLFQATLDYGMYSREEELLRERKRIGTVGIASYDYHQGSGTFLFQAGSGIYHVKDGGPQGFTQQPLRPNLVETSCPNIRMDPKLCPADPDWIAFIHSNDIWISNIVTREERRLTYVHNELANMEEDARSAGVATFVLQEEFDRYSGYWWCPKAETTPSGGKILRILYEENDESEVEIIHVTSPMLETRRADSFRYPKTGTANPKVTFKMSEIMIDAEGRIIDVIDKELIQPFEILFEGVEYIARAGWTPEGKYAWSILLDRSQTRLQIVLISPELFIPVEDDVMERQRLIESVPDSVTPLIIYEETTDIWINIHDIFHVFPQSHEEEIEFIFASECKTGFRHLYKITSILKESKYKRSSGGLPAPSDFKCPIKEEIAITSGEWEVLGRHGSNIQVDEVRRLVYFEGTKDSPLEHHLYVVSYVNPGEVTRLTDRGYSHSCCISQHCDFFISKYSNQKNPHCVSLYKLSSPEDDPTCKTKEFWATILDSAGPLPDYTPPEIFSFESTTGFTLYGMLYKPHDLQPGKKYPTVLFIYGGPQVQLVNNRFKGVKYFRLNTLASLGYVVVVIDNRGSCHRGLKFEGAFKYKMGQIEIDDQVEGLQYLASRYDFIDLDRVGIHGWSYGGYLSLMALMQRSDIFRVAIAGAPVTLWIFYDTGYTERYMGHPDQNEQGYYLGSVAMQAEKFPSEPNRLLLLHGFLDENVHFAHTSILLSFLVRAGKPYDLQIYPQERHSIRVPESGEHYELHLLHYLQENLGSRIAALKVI
# Procedure: (§1) The enzymatic reactions were conducted in duplicate at rt for 30 min in 50 μL DPP assay buffer (BPS Bioscience, #80300). […] The plates were read on a Tecan Infinite M1000 microplate reader with excitation 340 nm and emission 460 nm. Data were analyzed in Graph Pad Prism. IC50 values were determined by plotting % inhibition versus log compound concentration and using a one site dose response model. Raw data signals were normalized using 1% DMSO as 0% control and no enzyme as 100% inhibitor control.
# [5] = target: human dipeptidylpeptidase 9 (hDPP9) (Homo sapiens (Human), UniProt Q86TI2); assay: hDPP9 inhibition assay; type: biochemical; conditions: hDPP9 0.4 nM, Ala-Pro-amino-methylcoumarin 5 μM, n = 1
# human dipeptidylpeptidase 9 (hDPP9), sequence (Q86TI2 whole entry): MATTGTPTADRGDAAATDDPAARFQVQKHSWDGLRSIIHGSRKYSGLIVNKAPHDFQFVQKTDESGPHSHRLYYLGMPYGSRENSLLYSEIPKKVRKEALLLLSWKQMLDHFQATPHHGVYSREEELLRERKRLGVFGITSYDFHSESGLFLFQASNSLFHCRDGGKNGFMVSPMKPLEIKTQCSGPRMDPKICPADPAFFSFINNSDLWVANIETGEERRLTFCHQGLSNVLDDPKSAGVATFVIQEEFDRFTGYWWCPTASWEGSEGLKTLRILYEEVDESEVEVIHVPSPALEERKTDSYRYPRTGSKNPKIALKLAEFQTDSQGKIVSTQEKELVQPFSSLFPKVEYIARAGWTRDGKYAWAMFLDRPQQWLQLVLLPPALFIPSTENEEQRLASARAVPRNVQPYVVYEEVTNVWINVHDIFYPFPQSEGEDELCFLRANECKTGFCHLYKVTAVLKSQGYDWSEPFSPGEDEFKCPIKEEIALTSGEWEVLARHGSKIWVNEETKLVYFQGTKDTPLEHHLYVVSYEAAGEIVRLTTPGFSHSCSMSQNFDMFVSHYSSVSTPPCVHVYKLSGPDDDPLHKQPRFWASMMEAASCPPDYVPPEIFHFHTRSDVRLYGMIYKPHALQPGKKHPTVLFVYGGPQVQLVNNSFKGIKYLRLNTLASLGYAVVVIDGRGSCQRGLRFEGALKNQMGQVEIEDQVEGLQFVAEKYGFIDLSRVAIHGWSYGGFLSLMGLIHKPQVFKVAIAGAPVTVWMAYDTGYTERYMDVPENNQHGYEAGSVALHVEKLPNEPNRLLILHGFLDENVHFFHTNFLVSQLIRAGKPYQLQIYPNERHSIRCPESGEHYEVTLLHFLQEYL
# Procedure: as §1, with “Compounds were tested in a biochemical inhibition assay using human dipeptidylpeptidase 9 (hDPP9) enzyme at 0.4 nM FAC (BPS Bioscience, #80090) and the substrate Ala-Pro-amino-methylcoumarin (BPS Bioscience #80305) at 5 μM FAC. The enzymatic” for “The enzymatic”
# [6] = target: Fibroblast Activation Protein alpha (FAP) (Mus musculus (Mouse), UniProt P97321); assay: in vivo
# Fibroblast Activation Protein alpha (FAP), sequence (P97321 24-761): as the sequence (P97321 24-761) above
# Procedure: The effect of test compound on FAP enzyme activity in mouse plasma was evaluated in an enzymatic assay using the Fibroblast Activation Protein alpha (FAP) specific fluorogenic substrate dipeptide-Coumarin, Ala-Pro-AMC, (ARI-3144).
# Male C57Bl/6 mice (Charles River, Germany), 8 weeks of age, were single housed in a temperature-controlled room with a 12-hour light/dark cycle (06:00-18:00 light). The mice had ad libitum access to water and rodent chow diet (R70, Lactamin, Kimstad, Sweden), and were acclimated for 5 days upon arrival. After acclimation, all mice received a single oral dose of test compound (3 or 10 mg/kg). Blood samples for whole blood compound exposure measurements were taken at 0.25, 0.5, 1, 2, 4, 8 and 24 h post oral dosing. Samples were collected in EDTA capillary tubes (20 μL, K2E, REF 19.447) and were transferred to a 96-deep well plate (NUNC, Thermo Discher Scientific) and stored at −20° C. until further analyses were performed. Blood samples for plasma FAP enzyme activity measurements were taken at 0, 0.25, 0.5, 1, 2, 8 and 24 h post dosing. 25 μL of whole blood was collected in EDTA Microvette® CB 300 (K2E, REF 16.444.100) tubes, and were centrifuged at 4,000×g for 5 min. 10 μL of plasma was then transferred to PCR tubes and stored at −20° C. until further analysis was performed. All blood samples were taken by vena saphena puncture.
# Recombinant human FAP (PB-17-1837, construct PL-17-0278, cd33-FAP (27-757)-6His, Mw85926 Da) was used as a standard for this assay. […] The plates were read on a Beckman Paradigm reader with excitation 360 nm and emission 465 nm. Fluorescence measurements were performed with kinetic read every 5 minutes for 60 min at room temperature. Data were analyzed in Excel (IDBS XLfit Add-In) using a Linear Regression (y=k*x+m) model to prepare a human recombinant FAP standard curve.
# On the day of the assay, plasma was diluted (1:2) to 20 μL volume in buffer (PBS, 0.1% BSA) and 7.5 μL was transferred to the assay plate (384-well black, fluotrack PS, Greiner 781076). Ala-Pro-AMC (stock solution in 10 mM DMSO) was diluted in buffer (PBS, 0.1% BSA) to 150 μM concentration (180 μL stock solution to 12 mL buffer) and 7.5 μL added to the assay plate followed by a pipetting mix. The plates were read on a Beckman Paradigm reader with excitation 360 nm and emission 465 nm. Fluorescence measurements were performed with kinetic read every 5 minutes for 60 minutes at room temperature. As noted above, FAP cleaves Ala-Pro-AMC to release free AMC which is measured as a fluorescent signal.
# The in vivo potency IC50 of each test compound was then estimated by relating the plasma exposure C of the compound to target engagement E in plasma using the following equation:
# where E0 is the FAP baseline in plasma prior to dosing and Imax is the maximum effect of the compound. Data from each target engagement experiment were considered separately and therefore slightly different estimates of FAP baseline for each compound were obtained. […] The parameter estimation was done in Phoenix WinNonlin Certara build 8.1.0.3530 with the algorithm ‘Naïve pooled’ as parameter estimation method.
# [7] = target: human Fibroblast activation protein alpha (hFAP) (Homo sapiens (Human), UniProt Q12884); assay: hFAP inhibition assay (tight binders); type: biochemical; conditions: Ala-Pro-AMC 20 μM, n = 1 or geometric mean n = 2-6; note: hFAP 2.4 pM
# human Fibroblast activation protein alpha (hFAP), sequence (Q12884 38-760): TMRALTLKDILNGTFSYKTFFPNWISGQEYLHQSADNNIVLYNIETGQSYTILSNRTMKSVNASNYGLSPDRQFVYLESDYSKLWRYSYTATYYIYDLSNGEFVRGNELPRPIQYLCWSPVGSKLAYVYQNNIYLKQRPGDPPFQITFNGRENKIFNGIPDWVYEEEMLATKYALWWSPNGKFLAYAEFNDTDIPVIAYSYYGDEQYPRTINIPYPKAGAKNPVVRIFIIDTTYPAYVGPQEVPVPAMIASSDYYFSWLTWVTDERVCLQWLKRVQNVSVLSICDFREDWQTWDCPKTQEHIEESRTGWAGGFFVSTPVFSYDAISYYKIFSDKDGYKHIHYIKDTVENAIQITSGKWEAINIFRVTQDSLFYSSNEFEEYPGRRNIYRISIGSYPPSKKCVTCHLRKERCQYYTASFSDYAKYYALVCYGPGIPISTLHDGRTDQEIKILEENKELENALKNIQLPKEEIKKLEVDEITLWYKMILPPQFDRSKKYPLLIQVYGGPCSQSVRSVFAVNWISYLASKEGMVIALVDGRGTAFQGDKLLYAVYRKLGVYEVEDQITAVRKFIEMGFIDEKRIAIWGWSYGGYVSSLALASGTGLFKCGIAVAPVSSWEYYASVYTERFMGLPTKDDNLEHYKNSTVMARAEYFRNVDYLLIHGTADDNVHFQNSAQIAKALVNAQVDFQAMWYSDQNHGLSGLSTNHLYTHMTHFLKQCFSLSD
# Procedure: The plates were read on a PHERAstar® reader with excitation 340 nm and emission 460 nm. Data were analyzed in Genedata Screener®. IC50 values were determined by plotting % inhibition versus log compound concentration and using a one site dose response model.
# [8] = rat, hepatocytes
# in vitro [9] = conditions: human, microsomes, HLM CLint
# Procedure: Metabolic stability in HLM was measured as described in J Comput Aided Mol Des 2015, 29, 795.
# in vitro [10] = conditions: human, Caco-2
# Procedure: Caco-2 cell permeability was measured as described in Mol Pharm 2017, 14, 1601.
# physchem = conditions: kinetic from dmso stock
# Procedure: Kinetic solubility was measured as described in Comput Aided Mol Des 2015, 29, 795.
# FAP [11] = target: FAP (Homo sapiens (Human), UniProt Q12884); assay: hFAP inhibition assay; type: biochemical; conditions: hFAP […], Ala-Pro-AMC 20 μM; n = 1 or geometric mean n = 2-3
# FAP (Homo sapiens (Human), UniProt Q12884), sequence (Q12884 38-760): as above
# Procedure, shortened: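 Compounds (10-point, 3-fold dilutions from 50 μM top) were preincubated 15 min at rt in the dark with 0.48 nM hFAP in pH 7.4 Tris/NaCl/Chaps buffer. Reaction was started with substrate (40 μM solution) and ran 30 min at rt. Read by fluorescence (340/460 nm); IC50 from one-site fit.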
pIC50 (FAP [1]),pIC50 [3],pIC50 [4],pIC50 [5],pIC50 [6],Compound,hFAP Binding assay k(off) (hFAP (M39-A757)) [s⁻¹],hFAP Binding assay k(on) (hFAP (M39-A757)) [M⁻¹ s⁻¹],pIC50 [2],pIC50 [7],pKd (hFAP (M39-A757)),rHep CLint [8] [μL/min/1E6],microsomal CLint (in vitro [9]) [µL/min/mg],Papp A→B (in vitro [10]) [×10⁻⁶ cm/s],Papp B→A (in vitro [10]) [×10⁻⁶ cm/s],efflux ratio (in vitro [10]),solubility (physchem) [µM],pIC50 (FAP [11])
9.30,< 4.00,5.18,5.82,7.72,"C[C@@H]1CN(c2ccc3nccc(C(=O)NCC(=O)N4CSC[C@H]4C#N)c3c2)C[C@H](C)O1 [Example 68, N-(2-((R)-4-Cyanothiazolidin-3-yl)-2-oxoethyl)-6-((2R,6S)-2,6-dimethylmorpholino)-quinoline-4-carboxamide]",0.00011,1000000,5.77,,,,,,,,,
9.52,< 4.00,5.33,5.85,,"C[C@@H]1CN(c2ccc3nccc(C(=O)NCC(=O)N4CSC[C@H]4C#N)c3c2)C[C@@H](C)O1 [Example 70, N-(2-((R)-4-Cyanothiazolidin-3-yl)-2-oxoethyl)-6-((2R,6R)-2,6-dimethylmorpholino)-quinoline-4-carboxamide]",0.00014,5400000,5.96,,,,,,,,,
,,,,,"N#C[C@@H]1CSCN1C(=O)CNC(=O)c1ccnc2ccc(N3CC4CC(C3)O4)cc12 [Example 77, 6-(6-Oxa-3-azabicyclo[3.1.1]heptan-3-yl)-N-(2-((R)-4-cyanothiazolidin-3-yl)-2-oxoethyl)quinoline-4-carboxamide]",0.000066,4800000,6.33,10.29,10.85,5.4,7.1,0.57,16,29,850,
,,,,,"N#C[C@@H]1CSCN1C(=O)CNC(=O)c1ccnc2ccc(N3C4CCCC3COC4)cc12 [Example 86, 6-(3-Oxa-9-azabicyclo[3.3.1]nonan-9-yl)-N-(2-((R)-4-cyanothiazolidin-3-yl)-2-oxoethyl)quinoline-4-carboxamide]",0.000058,730000,6.44,10.13,10.09,44,160,,,,640,
,,,,,"N#C[C@@H]1CSCN1C(=O)CNC(=O)c1ccnc2ccc(N3C4CCC3CC4)cc12 [Example 209, (R)-6-(7-Azabicyclo[2.2.1]heptan-7-yl)-N-(2-(4-cyanothiazolidin-3-yl)-2-oxoethyl)quinoline-4-carboxamide]",0.000042,3200000,6.27,9.82,10.70,52,170,,,,970,9.36
